# Ends that are not written are not given here. * marks the point of attachment. Biotin = O=C1N[C@H]2[C@H](CS[C@H]2CCCCC(=O)*)N1
# System: HEK293T cells
# Assay: Transfection-independent cytoplasmic entry, T7 RNAP RT-PCR assay
# Assay type: cell-based
# Conditions: 40 pmol biotin:streptavidin dsDNA-SA-peptide assembly added without transfection reagent to HEK293T cells transiently transfected with T7_pEF/myc/cyto; lysed 18 hours later; FIG. 14 bottom panel
# Experimental: To determine if cytoplasmic T7 would be active as a polymerase in mammalian cells, we developed a transient transfection assay in HEK293T cells (FIG. 5). Cells were seeded in 24-well dishes at 350,000 cells/well and then incubated overnight in Eagle's Minimum Essential Medium supplemented with 10% fetal bovine serum (FBS). A DNA template containing the T7 promoter upstream of the coding region of a VH antibody domain was prepared by PCR as follows. VH DNA from a naïve human VH library was PCR amplified (Strategene 600312) with a 5′ oligo coding for in vitro transcription and translation signal T7TMV (5′-TAATACG […]-3′; SEQ ID NO: 3)) and a 3′ oligo annealing to the C-terminal VH DNA Cmu and SA linker region, Y15 (5′-[…]-3′; SEQ ID NO: 4). The PCR product was gel purified. […] This specific RNA is then detected and amplified by RT-PCR. […]
# For the cytoplasmic entry selections to be successful, biotin-streptavidin assemblies of oligonucleotide and encoded peptide or protein must be competent as T7 polymerase templates. To test whether a complex of biotinylated peptide or VH binder assembled with streptavidin can be transfected into cells, transcribed by T7 RNAP, and detected by RT-PCR, the above VH DNA was modified to carry both SP6 and T7 promoter sequences at the 5′ end (5′-[…]-3′; SEQ ID NO: 9) and Cmu-flag-SA-polyA sequence at the 3′ end (FIG. 12). […]
row,Substance,cellular uptake / RT-PCR activity as a result of cytoplasmic T7 polymerase activity
1,Biotin-YGRKKRRQRRR [TAT],cellular uptake of the peptide assemblies occurs
2,Biotin-KKWKMRRNQFWVKVQRG [ANT],cellular uptake of the peptide assemblies occurs

# — patent US20120004137A1, “IDENTIFICATION OF NUCLEIC ACID DELIVERY VEHICLES USING DNA DISPLAY” (X-Body, Inc., priority 2009, published 2012)
